How the values were obtained:
[1] = test system: Staphylococcus aureus ATCC 6538; test: Quantitative evaluation of antibacterial activity of bank note samples, modified AATCC 100-1993; details: 625 ppm agent in acrylate coating
Protocol: (§1) For the testing, a protocol was selected which measured the percent kill in a bacterial population over a period of time when put in contact with banknote samples.
(§2) Tests were conducted against two common bacteria: the gram-positive Staphylococcus aureus, which is found almost everywhere in and on the body, and which can cause numerous infections; as well as the gram-negative Escherichia coli, which is a common “bathroom bacteria” that can cause severe food poisoning. With good results against these organisms, efficacy against a broad spectrum of other bacteria can be predicted.
(§3) Ten samples marked Secu-GB1-A-260503, Secu-GB2-A-260503, Secu-GB3-A-260503, Secu-GB4-A-260503, Secu-GB5-A-260503, Secu-C-A-260503, Secu-C-B-260503, Secu-C-C-260503, Secu-C-D-260503 and Secu-C-E-260503 were manufactured employing 2,4,4′-trichloro-2′-hydroxydiphenyl ether in the acrylate composition applied as a coating layer on the planar material.
(§4) Samples from the bank note prototypes were evaluated for their antibacterial activity in accordance with the modified method AATCC 100-1993. The tests were performed against the organisms Staphylococcus aureus ATCC 6538 and Escherichia coli ATCC 8739.

[2] = test system: Escherichia coli ATCC 8739; test: as above; details: 625 ppm agent in acrylate coating
Protocol: as §1, §2, §3, §4

Oc1cc(Cl)ccc1Oc1ccc(Cl)cc1Cl [2,4,4′-trichloro-2′-hydroxydiphenyl ether]
log reductions (in words) [1]: strong log reductions | log reductions (in words) [2]: strong log reductions
